# Results as given in US20230234967A1, “Fused Azole Heterocycles as AHR Antagonists” (Senda Biosciences, Inc., priority 2021, published 2023).
# Read-outs that look alike come from different tables or passages of the source.
# Assays:
# [1] = Hepatocyte Stability Assay, human hepatocytes; assay type: in vitro ADME; conditions: cryopreserved human hepatocytes, read-out: Human hepatocyte clearance
# Experimental: Example 32: Hepatocyte Stability Assay
# Preparation of working solutions: 10 mM stock solutions of test compound and positive control were prepared in DMSO. In separate conical tubes, the 10 mM solution of test compound and the positive control were diluted to 100 μM by combining 198 μL of 50% acetonitrile/50% water and 2 μL of 10 mM stock.
# Preparation of Hepatocytes: Incubation medium (William's E Medium supplemented with GlutaMAX) and hepatocyte thawing medium were placed in a 37° C. water bath and allowed warming for at least 15 minutes prior to use. A vial of cryopreserved hepatocytes was transferred from storage, ensuring that vials remained at cryogenic temperatures until thawing process ensued. Cells were thawed by placing the vial in a 37° C. water bath and gently shaking the vials for 2 minutes. After thawing was completed, vial was sprayed with 70% ethanol and transferred to a biosafety cabinet. Wide-bore pipette tip were used to transfer hepatocytes into 50 mL conical tube containing thawing medium. The 50 mL conical tube were placed into a centrifuge and spun at 100 g for 10 minutes. Upon completion of spin, thawing medium was aspirated and resuspended hepatocytes in enough incubation medium to yield ˜1.5×10^6 cells/mL. Using an AO/PI Staining, cells were counted and the viable cell density was determined. Cells with poor viability (<75% viability) were determined to be not acceptable for use. Cells were diluted with incubation medium to a working cell density of 0.5×10^6 viable cells/mL.
# Procedure for Stability Determination: 198 μL of hepatocytes were pipetted into each wells of a 96-well non-coated plate. The plate was placed in the incubator to allow the hepatocytes to warm for 10 minutes. 2 μL of the 100 μM test compound or positive control solutions were pipetted into respective wells of the 96-well non-coated plate to start the reaction. The plate was returned to the incubator for the designed time points. Well contents was transferred in 25 μL aliquots at time points of 0, 15, 30, 60, 90 and 120 minutes. The aliquots were then mixed with 6 volumes (150 μL) of acetonitrile containing internal standard, IS (100 nM alprazolam, 200 nM caffeine and 100 nM tolbutamide) to terminate the reaction. The mixture was vortex for 5 minutes. Samples were centrifuged for 45 minutes at 3,220 g. An aliquot of 100 μL of the supernatant was diluted by 100 μL ultra-pure water, and the mixture was used for LC/MS/MS analysis. All incubations were performed in duplicate.
# Data Analysis: All calculations were carried out using Microsoft Excel. Peak areas were determined from extracted ion chromatograms. In vitro half-life (t1/2) of parent compound was determined by regression analysis of the percent parent disappearance vs. time curve.
# The in vitro half-life (in vitro t1/2) was determined from the slope value:
# Conversion of the in vitro t1/2 (in min) into the in vitro intrinsic clearance (in vitro CLint, in μL/min/1×10^6 cells) was done using the following equation (mean of duplicate determinations): • in vitro CLint=kV/N • V=incubation volume (0.2 mL); • N=number of hepatocytes per well (0.1×10^6 cells).
# “+++” indicates a CLint value less than 20 mL/min/Kg, “++” indicates a CLint between 20 and 50 mL/min/Kg, and “+” indicates an CLint above 50 mL/min/Kg.
# [2] = Solubility Determination Assay (PBS pH 1.6 and pH 7.4); assay type: physicochemical; conditions: PBS buffer, aqueous buffer, kinetic from dmso stock, 2 hours shaking
# Experimental: Example 31: Solubility Determination Assay
# The stock solutions of test compounds and control compound progesterone were prepared in DMSO at the concentrations of 10 mM. 15 μL of stock solution (10 mM) of each sample was placed in order into their proper 96-well rack. 485 μL of PBS pH 1.6 and pH 7.4 were added into each vial of the cap-less Solubility Sample plate. The assay was performed in singlet. One stir stick was added to each vial and then the vial was sealed using a molded PTFE/Silicone plug. The solubility sample plates were then transferred to the Eppendorf Thermomixer Comfort plate shaker and shaken at 25° C. at 1100 rpm for 2 hours. After completion of the 2 hours, plugs were removed and the stir sticks were removed using a big magnet. The samples from the Solubility Sample plate were transferred into the filter plate. Using the Vacuum Manifold, all the samples were filtered. An aliquot of 5 μL was taken from the filtrate followed by addition of 495 μL of a mixture of H2O and acetonitrile containing internal standard (1:1). A certain proportion of ultrapure water was used to dilute the diluent according to the peak shape. The dilution factor was changed according to the solubility values and the LC-MS signal response.
# From the 10 mM DMSO STD plate, 6 μL was transferred into the remaining empty plate, and then 194 μL of DMSO were added to that plate to have a STD concentration of 300 μM. From the 300 μM DMSO STD plate, 5 μL were transferred into the remaining empty plate, and then 495 μL of a mixture of H2O and acetonitrile containing internal standard (1:1) were added to that plate to have a final STD concentration of 3 μM. A certain proportion of ultrapure water was used to dilute the diluent according to the peak shape. The concentrations of the standard samples were changed according to the LC-MS signal response.
# The plate was placed into the well plate autosampler. The samples were evaluated by LC-MS/MS analysis.
# All calculations were carried out using Microsoft Excel.
# The filtrate was analyzed and quantified against a standard of known concentration using LC coupled with mass spectral peak identification and quantitation. Solubility values of the test compound and control compound were calculated as follows: […]
# Any value of the compounds that was not within the specified limits was rejected and the experiment was repeated.
# “+++” indicates a solubility value equal to or greater than […] “++” indicates a solubility value between 0.1 and 1 μM and “+” indicates a solubility value less than 0.1 μM.
# [3] = PBS pH 1.6, 25° C., read-out: Aq. Solubility at pH = 1.6
# [4] = PBS pH 7.4, 25° C., read-out: Aq. Solubility at pH = 7.4
CLint scaled at 1 µM [1] [mL/min/kg],"solubility at 2 h [2, 3] [µM]","solubility at 2 h [2, 4] [µM]",Compound
20 to 50,0.1 to 1,< 0.1,"Cc1ccccc1-c1ccc2nc(NC(=O)c3ccccn3)sc2n1 [Product 8, N-(5-(o-tolyl)thiazolo[5,4-b]pyridin-2-yl)picolinamide]"
20 to 50,0.1 to 1,0.1 to 1,"COc1ccccc1-c1ccc2nc(NC(=O)c3ccccn3)sc2n1 [Product 12, N-(5-(2-methoxyphenyl)thiazolo[5,4-b]pyridin-2-yl)picolinamide]"
< 20,0.1 to 1,≥ 1,"Cc1ccccc1-c1ccc2nc(NC(=O)c3ccnn3C)sc2n1 [Product 15, 1-Methyl-N-(5-(o-tolyl)thiazolo[5,4-b]pyridin-2-yl)-1H-pyrazole-5-carboxamide]"
20 to 50,≥ 1,≥ 1,"CN(C)c1ccccc1-c1ccc2nc(NC(=O)c3ccnn3C)sc2n1 [Product 18, N-(5-(2-(dimethylamino)phenyl)thiazolo[5,4-b]pyridin-2-yl)-1-methyl-1H-pyrazole-5-carboxamide]"
< 20,≥ 1,≥ 1,"COc1ccccc1-c1ccc2nc(NC(=O)c3ccnn3C)sc2n1 [Product 25, N-(5-(2-methoxyphenyl)thiazolo[5,4-b]pyridin-2-yl)-1-methyl-1H-pyrazole-5-carboxamide]"
< 20,≥ 1,≥ 1,"Cc1ccccc1-c1ccc2nc(NC(=O)N3CCOCC3)sc2n1 [Product 39, N-(5-(o-tolyl)thiazolo[5,4-b]pyridin-2-yl)morpholine-4-carboxamide]"
< 20,≥ 1,0.1 to 1,Cn1ncnc1C(=O)Nc1cnc2cc(-c3cc(F)ccc3C(F)F)[nH]c2c1 [Product 47]
